Assay results as given in ChEMBL document CHEMBL3525960, “Role of catechol-O-methyltransferase in the disposition of luteolin in rats” (Drug Metab Dispos, 2011).

How the values were obtained:
Small intestine [1] = experiment: Drug metabolism in Sprague-Dawley rat small intestine homogenate treated with luteolin at 20 uM after 20 to 60 mins in presence of COMT inhibitor entacapone; format: ADME, tissue-based; conditions: tissue homogenate
Lung [2] = experiment: Drug metabolism in Sprague-Dawley rat lung homogenate treated with luteolin at 20 uM after 20 to 60 mins; format: ADME, tissue-based; conditions: tissue homogenate
[3] = AUC (0 to infinity) in Sprague-Dawley rat treated with luteolin at 6.5 mg/kg, iv; format: ADME, organism-based; design: time infinity, dose 6.5 mg/kg, route intravenous; conditions: plasma
Small intestine [4] = experiment: Drug metabolism in Sprague-Dawley rat small intestine homogenate treated with luteolin at 20 uM after 20 to 60 mins; format: ADME, tissue-based; conditions: tissue homogenate
[5] = Drug metabolism in Sprague-Dawley rat erythrocytes homogenate treated with luteolin at 20 uM after 20 to 60 mins in presence of COMT inhibitor entacapone; format: ADME, cell-based; conditions: erythrocyte
[6] = AUC (0 to t) in Sprague-Dawley rat treated with luteolin at 6.5 mg/kg, iv; format: ADME, organism-based; design: dose 6.5 mg/kg, route intravenous; conditions: plasma
Lung [7] = experiment: Drug metabolism in Sprague-Dawley rat lung homogenate treated with luteolin at 20 uM after 20 to 60 mins in presence of COMT inhibitor entacapone; format: ADME, tissue-based; conditions: tissue homogenate
[8] = Volume of distribution in Sprague-Dawley rat treated with luteolin at 6.5 mg/kg, iv; format: ADME, organism-based; design: dose 6.5 mg/kg, route intravenous; conditions: in vivo
[9] = Drug metabolism in Sprague-Dawley rat erythrocytes homogenate treated with luteolin at 20 uM after 20 to 60 mins; format: ADME, cell-based; conditions: erythrocyte
Liver microsome = experiment: Stability in Sprague-Dawley rat liver microsomes at 10 uM after 10 to 30 mins by HPLC analysis; format: ADME
Kidney [10] = experiment: Drug metabolism in Sprague-Dawley rat kidney homogenate treated with luteolin at 20 uM after 20 to 60 mins in presence of COMT inhibitor entacapone; format: ADME, tissue-based; conditions: tissue homogenate
[11] = Half life in Sprague-Dawley rat treated with luteolin at 6.5 mg/kg, iv; format: ADME, organism-based; design: dose 6.5 mg/kg, route intravenous; conditions: in vivo
[12] = Drug excretion in Sprague-Dawley rat urine treated with luteolin at 6.5 mg/kg, iv after 24 hrs co-treated with COMT inhibitor entacapone; format: ADME, organism-based; design: dose 6.5 mg/kg, route intravenous; conditions: read-out: Drug excretion
[13] = Mean residence time (0 to t) in Sprague-Dawley rat treated with luteolin at 6.5 mg/kg, iv; format: ADME, organism-based; design: dose 6.5 mg/kg, route intravenous; conditions: in vivo
[14] = Drug recovery in Sprague-Dawley rat urine assessed as retention time treated with luteolin at 6.5 mg/kg, iv by reverse-phase HPLC method; format: ADME, organism-based; design: dose 6.5 mg/kg, route intravenous; conditions: in vivo
Liver [15] = experiment: Drug metabolism in Sprague-Dawley rat liver homogenate treated with luteolin at 20 uM after 20 to 60 mins; format: ADME, tissue-based; conditions: tissue homogenate
Liver [16] = experiment: Drug metabolism in Sprague-Dawley rat liver homogenate treated with luteolin at 20 uM after 20 to 60 mins in presence of COMT inhibitor entacapone; format: ADME, tissue-based; conditions: tissue homogenate
[17] = Mean residence time (0 to infinity) in Sprague-Dawley rat treated with luteolin at 6.5 mg/kg, iv; format: ADME, organism-based; design: dose 6.5 mg/kg, route intravenous; conditions: in vivo
Kidney [18] = experiment: Drug metabolism in Sprague-Dawley rat kidney homogenate treated with luteolin at 20 uM after 20 to 60 mins; format: ADME, tissue-based; conditions: tissue homogenate
[19] = Cmax in Sprague-Dawley rat treated with luteolin at 6.5 mg/kg, iv; format: ADME, organism-based; design: dose 6.5 mg/kg, route intravenous; conditions: in vivo
[20] = Drug excretion in Sprague-Dawley rat urine treated with luteolin at 6.5 mg/kg, iv after 24 hrs; format: ADME, organism-based; design: dose 6.5 mg/kg, route intravenous; conditions: read-out: Drug excretion
Rattus norvegicus = experiment: Clearance in Sprague-Dawley rat treated with luteolin at 6.5 mg/kg, iv; format: ADME, organism-based; design: dose 6.5 mg/kg, route intravenous; conditions: in vivo

- Drug metabolism (Small intestine [1]): metabolite_not_detected
- Drug metabolism (Lung [2]): metabolite_detected
- AUC(0-inf) [3]: 466 ng·h/mL
- Drug metabolism (Small intestine [4]): metabolite_detected
- Drug metabolism [5]: metabolite_not_detected
- AUC(0-t) [6]: 427 ng·h/mL
- Drug metabolism (Lung [7]): metabolite_not_detected
- Vd [8]: 10.3 L/kg
- Drug metabolism [9]: metabolite_detected
- Stability (Liver microsome): Unstable
- Drug metabolism (Kidney [10]): metabolite_not_detected
- half-life [11]: 30.8 min
- dose excreted at 24 h [12]: 0.254%
- MRT last [13]: 35.8 min
- Retention_time [14]: 30.85 min
- Drug metabolism (Liver [15]): metabolite_detected
- Drug metabolism (Liver [16]): metabolite_not_detected
- MRT inf [17]: 46 min
- Drug metabolism (Kidney [18]): metabolite_detected
- Cmax [19]: 560 ng/mL
- dose excreted at 24 h [20]: 1.22%
- clearance (Rattus norvegicus): 238 mL/min/kg
SMILES: COc1ccc(-c2cc(=O)c3c(O)cc(O)cc3o2)cc1O [DIOSMETIN]
